Test results taken from the supplement of paper PMC10307832.

Columns and labels:
Assay in all cases: relative viability (nuclei count vs DMSO), 5 days (fraction); higher = more cells survive
[1] = compound: COc1ncc(-c2ccc3nccc(-c4ccnnc4)c3c2)cc1NS(=O)(=O)c1ccc(F)cc1F [Omipalisib] + CS(=O)(=O)CCNCc1ccc(-c2ccc3ncnc(Nc4ccc(OCc5cccc(F)c5)c(Cl)c4)c3c2)o1 [Lapatinib] (partner 2 µM)
Summary of the method: (§1)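 Relative viability divides the nuclei count in treated wells by that in vehicle wells. Lung cancer cell lines were seeded in 1536-well plates, dosed by pin tool the next day, and fixed and stained after 5 days in one step with final 0.05% Triton X-100, 1% formaldehyde and 1 ug/ml Hoechst. Dosing was a single drug or a fixed anchor-drug dose plus five library-drug doses (not always all listed) in √10 steps, and values are medians of duplicate plates imaged at 4×.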

[2] = compound: COc1ncc(-c2ccc3nccc(-c4ccnnc4)c3c2)cc1NS(=O)(=O)c1ccc(F)cc1F [Omipalisib] + COc1cc2c(Oc3ccc(NC(=O)C4(C(=O)Nc5ccc(F)cc5)CC4)cc3F)ccnc2cc1OCCCN1CCOCC1 [Foretinib] (partner 0.25 µM)
Summary of the method: as §1

[3] = compound: COc1ncc(-c2ccc3nccc(-c4ccnnc4)c3c2)cc1NS(=O)(=O)c1ccc(F)cc1F [Omipalisib] + CC(C)C[C@H](NC(=O)[C@H](Cc1ccccc1)NC(=O)c1cnccn1)B(O)O [Bortezomib] (partner 0.002 µM)
Summary of the method: as §1

[4] = compound: COc1ncc(-c2ccc3nccc(-c4ccnnc4)c3c2)cc1NS(=O)(=O)c1ccc(F)cc1F [Omipalisib] + Cc1nc(NC(=O)N2CCC[C@H]2C(N)=O)sc1-c1ccnc(C(C)(C)C(F)(F)F)c1 [Alpelisib] (partner 2 µM)
Summary of the method: as §1

[5] = compound: COc1ncc(-c2ccc3nccc(-c4ccnnc4)c3c2)cc1NS(=O)(=O)c1ccc(F)cc1F [Omipalisib] + CC(=O)Nc1cccc(-n2c(=O)n(C3CC3)c(=O)c3c(Nc4ccc(I)cc4F)n(C)c(=O)c(C)c32)c1 [Trametinib] (partner 0.02 µM)
Summary of the method: as §1

[6] = compound: COc1ncc(-c2ccc3nccc(-c4ccnnc4)c3c2)cc1NS(=O)(=O)c1ccc(F)cc1F [Omipalisib] + COc1cccc2cc(-c3nc([C@H]4CC[C@H](C(=O)O)CC4)n4ncnc(N)c34)[nH]c12 [OSI-027] (partner 0.5 µM)
Summary of the method: as §1

Cell Line | relative viability ([1]; first compound 0.0003 µM) | relative viability ([1]; first compound 0.003 µM) | relative viability ([1]; first compound 0.03 µM) | relative viability ([2]; first compound 0.0003 µM) | relative viability ([2]; first compound 0.003 µM) | relative viability ([2]; first compound 0.03 µM) | relative viability ([3]; first compound 0.0003 µM) | relative viability ([3]; first compound 0.003 µM) | relative viability ([3]; first compound 0.03 µM) | relative viability ([4]; first compound 0.0003 µM) | relative viability ([4]; first compound 0.003 µM) | relative viability ([4]; first compound 0.03 µM) | relative viability ([5]; first compound 0.0003 µM) | relative viability ([5]; first compound 0.003 µM) | relative viability ([5]; first compound 0.03 µM) | relative viability ([6]; first compound 0.0003 µM) | relative viability ([6]; first compound 0.003 µM) | relative viability ([6]; first compound 0.03 µM)
NCI-H2085 | 0.838 | 0.571 | 0.382 | 0.95 | 0.884 | 0.26 | 0.953 | 0.98 | 0.517 | 1.06 | 0.787 | 0.36 | 0.456 | 0.255 | 0.257 | 0.776 | 0.349 | 0.315
NCI-H460 | 0.594 | 0.845 | 0.151 | 1.04 | 1.01 | 0.347 | 1.07 | 0.824 | 0.109 | 0.362 | 0.241 | 0.0908 | 0.0973 | 0.0781 | 0.0544 | 0.661 | 0.258 | 0.0847
HCC-78 | 0.329 | 0.567 | 0.386 | 0.436 | 0.433 | 0.266 | 0.338 | 0.32 | 0.252 | 0.297 | 0.296 | 0.193 | 0.596 | 0.558 | 0.275 | 0.37 | 0.35 | 0.288
NCI-H650 | 0.816 | 0.759 | 0.499 | 1.04 | 0.877 | 0.613 | 0.749 | 0.501 | 0.293 | 1.03 | 0.741 | 0.487 | 0.925 | 0.628 | 0.393 | 0.447 | 0.384 | 0.315
NCI-H322M | 0.53 | 0.553 | 0.415 | 0.888 | 0.684 | 0.566 | 1.28 | 1.01 | 1.03 | 1.07 | 0.77 | 0.452 | 0.478 | 0.453 | 0.416 | 0.562 | 0.481 | 0.412
A-427 | 1.08 | 0.897 | 1.05 | 0.865 | 1.01 | 0.718 | 0.969 | 0.903 | 0.913 | 1.1 | 0.993 | 1.03 | 0.665 | 0.38 | 0.358 | 0.48 | 0.281 | 0.377
BEN | 0.566 | 0.444 | 0.364 | 0.518 | 0.403 | 0.538 | 0.773 | 0.527 | 0.46 | 0.781 | 0.58 | 0.585 | 0.828 | 0.671 | 0.602 | 0.311 | 0.271 | 0.291
NCI-H2087 | 1.34 | 0.955 | 0.747 | 1.17 | 0.809 | 0.557 | 0.851 | 0.867 | 0.736 | 1.19 | 0.886 | 0.751 | 0.18 | 0.163 | 0.142 | 0.532 | 0.309 | 0.251
PC-14 | 0.308 | 0.228 | 0.162 | 0.904 | 0.961 | 0.967 | 0.822 | 0.991 | 0.646 | 0.997 | 0.955 | 0.876 | 0.807 | 0.682 | 0.243 | 0.761 | 0.529 | 0.435
COR-L23 | 1.01 | 0.893 | 0.517 | 0.974 | 1.01 | 0.719 | 1 | 0.934 | 0.63 | 0.879 | 0.801 | 0.431 | 0.496 | 0.342 | 0.249 | 0.786 | 0.59 | 0.483
SK-LU-1 | 0.89 | 0.724 | 0.493 | 0.869 | 0.662 | 0.479 | 1.1 | 0.724 | 0.511 | 0.937 | 0.838 | 0.642 | 0.411 | 0.36 | 0.253 | 0.373 | 0.207 | 0.183
NCI-H2023 | 0.684 | 0.374 | 0.179 | 0.908 | 0.433 | 0.233 | 0.906 | 0.487 | 0.301 | 0.513 | 0.523 | 0.344 | 0.492 | 0.358 | 0.149 | 0.344 | 0.169 | 0.0988
LC-2-ad | 0.933 | 0.784 | 0.745 | 0.961 | 0.743 | 0.411 | 1.11 | 0.978 | 0.888 | 0.858 | 0.856 | 0.425 | 0.86 | 0.754 | 0.605 | 0.732 | 0.501 | 0.439
LU99A | 0.908 | 0.71 | 0.346 | 0.718 | 0.464 | 0.327 | 1.01 | 0.728 | 0.495 | 0.492 | 0.439 | 0.277 | 0.5 | 0.367 | 0.22 | 0.315 | 0.213 | 0.239
HARA | 0.613 | 0.659 | 0.326 | 0.928 | 0.897 | 0.26 | 1.16 | 1.15 | 0.78 | 0.769 | 0.704 | 0.434 | 0.694 | 0.301 | 0.188 | 0.47 | 0.19 | 0.161
NCI-H838 | 0.942 | 0.683 | 0.31 | 0.953 | 0.703 | 0.375 | 0.743 | 0.652 | 0.234 | 0.935 | 0.802 | 0.357 | 0.494 | 0.389 | 0.199 | 0.335 | 0.345 | 0.181
NCI-H647 | 0.932 | 0.782 | 0.272 | 1.16 | 0.965 | 0.603 | 1.05 | 0.739 | 0.462 | 1.09 | 0.98 | 0.33 | 0.341 | 0.278 | 0.15 | 0.547 | 0.408 | 0.264
